Measured values as given in the NIST ThermoML archive (doi:10.1021/je060179e).
± gives the expanded uncertainty stated by the source.

Details: for mass density: 101.33 kPa, Liquid

surface tension liquid-gas (288.15 K)	mass density (288.15 K)	surface tension liquid-gas (293.15 K)	mass density (293.15 K)	surface tension liquid-gas (298.15 K)	mass density (298.15 K)	surface tension liquid-gas (303.15 K)	mass density (303.15 K)	surface tension liquid-gas (308.15 K)	mass density (308.15 K)	SMILES
24.68 ± 0.29 mN/m	813.32 ± 0.23 kg/m3	24.21 ± 0.29 mN/m	809.56 ± 0.23 kg/m3	23.79 ± 0.29 mN/m	805.72 ± 0.24 kg/m3	23.34 ± 0.28 mN/m	801.91 ± 0.24 kg/m3	22.79 ± 0.28 mN/m	798.07 ± 0.24 kg/m3	CCCCO [butan-1-ol]
20.81 ± 0.27 mN/m	687.98 ± 0.65 kg/m3	20.27 ± 0.27 mN/m	683.78 ± 0.65 kg/m3	19.68 ± 0.27 mN/m	679.55 ± 0.66 kg/m3	19.19 ± 0.26 mN/m	675.3 ± 0.66 kg/m3	18.93 ± 0.26 mN/m	671 ± 0.67 kg/m3	CCCCCCC [heptane]
26.08 ± 0.32 mN/m	822.28 ± 0.91 kg/m3	25.61 ± 0.32 mN/m	818.75 ± 0.92 kg/m3	25.19 ± 0.32 mN/m	815.23 ± 0.93 kg/m3	24.74 ± 0.32 mN/m	811.6 ± 0.94 kg/m3	24.19 ± 0.31 mN/m	808 ± 0.95 kg/m3	CCCCCCO [hexan-1-ol]
27.41 ± 0.31 mN/m	828.55 ± 0.45 kg/m3	26.94 ± 0.31 mN/m	825.11 ± 0.45 kg/m3	26.52 ± 0.31 mN/m	821.64 ± 0.46 kg/m3	26.07 ± 0.3 mN/m	818.19 ± 0.46 kg/m3	25.52 ± 0.3 mN/m	814.69 ± 0.47 kg/m3	CCCCCCCCO [octan-1-ol]
